# Measured values taken from patent US12522595B2, “Bicyclic ether O-glycoprotein-2-acetamido-2-deoxy-3-D-glucopyranosidase inhibitors” (BIOGEN MA INC., priority 2019, dated 2026).
# pIC50: −log10 of the molar value.
# Molecular target: T1, Recombinant full length human OGA enzyme (Homo sapiens, UniProt O60502)
# T1 construct: Recombinant full length human OGA enzyme was purchased from Origene; purchased Origene
# T1 sequence (O60502 1-916): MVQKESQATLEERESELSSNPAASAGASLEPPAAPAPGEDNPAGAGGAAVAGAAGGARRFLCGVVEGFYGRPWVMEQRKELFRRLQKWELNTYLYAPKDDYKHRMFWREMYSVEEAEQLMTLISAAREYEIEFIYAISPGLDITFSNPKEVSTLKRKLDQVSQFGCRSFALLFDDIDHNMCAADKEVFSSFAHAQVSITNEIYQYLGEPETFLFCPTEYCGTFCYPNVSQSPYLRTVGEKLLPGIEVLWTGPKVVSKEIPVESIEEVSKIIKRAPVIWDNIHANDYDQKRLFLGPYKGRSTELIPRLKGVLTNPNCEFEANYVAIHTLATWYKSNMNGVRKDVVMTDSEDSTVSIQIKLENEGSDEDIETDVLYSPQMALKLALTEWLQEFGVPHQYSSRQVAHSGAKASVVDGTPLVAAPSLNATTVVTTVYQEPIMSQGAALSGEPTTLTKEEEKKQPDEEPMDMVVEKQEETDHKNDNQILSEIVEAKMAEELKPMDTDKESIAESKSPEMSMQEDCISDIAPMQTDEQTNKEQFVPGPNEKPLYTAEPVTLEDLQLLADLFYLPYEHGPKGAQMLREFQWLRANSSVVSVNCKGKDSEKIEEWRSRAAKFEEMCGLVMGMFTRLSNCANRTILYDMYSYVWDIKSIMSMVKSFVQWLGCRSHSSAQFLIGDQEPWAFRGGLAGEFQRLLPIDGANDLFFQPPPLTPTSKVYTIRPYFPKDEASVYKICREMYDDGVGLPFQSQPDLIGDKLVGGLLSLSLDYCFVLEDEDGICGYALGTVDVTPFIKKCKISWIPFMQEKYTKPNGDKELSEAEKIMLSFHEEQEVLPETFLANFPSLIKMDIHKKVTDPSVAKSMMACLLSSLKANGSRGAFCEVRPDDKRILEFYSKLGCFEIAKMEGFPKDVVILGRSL
# Test: OGA enzyme inhibition biochemical assay
# Conditions: 1 nM OGA, 100 μM 4-MUGlcNAc (Km), pH 6.4, 90 minutes at room temperature, 10-point dose-response from 20 μM
# How it was run: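 1 nM OGA with 100 μM 4-MUGlcNAc (Km) in McIlvaine buffer pH 6.4, 0.01% BSA, 90 min at room temperature; quenched with 3M glycine pH 10, fluorescence Ex 355/Em 460 nm. 10-point, 4-fold dilutions from 20 μM; 4-parameter variable-slope fit.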
row,pIC50,Compound
1,> 9.00,"CC(=O)Nc1ncc(CN2C[C@H](Oc3ccc4occc4n3)C[C@@H]2C)s1 [Example 65, N-(5-(((2S,4R)-4-(furo[3,2-b]pyridin-5-yloxy)-2-methylpyrrolidin-1-yl)methyl)thiazol-2-yl)acetamide]"
2,> 9.00,"CC(=O)Nc1nc(F)c(CN2C[C@H](Oc3ccnc4cnn(C)c34)C[C@@H]2C)s1 [Example 135, N-(4-fluoro-5-(((2S,4R)-2-methyl-4-((1-methyl-1H-pyrazolo[4,3-b]pyridin-7-yl)oxy)pyrrolidin-1-yl)methyl)thiazol-2-yl)acetamide]"
3,> 9.00,"CC(=O)Nc1ncc(CN2C[C@H](Oc3cnc4nc(C)oc4c3)C[C@@H]2C)s1 [Example 168, N-(5-(((2S,4R)-2-Methyl-4-((2-methyloxazolo[4,5-b]pyridin-6-yl)oxy)pyrrolidin-1-yl)methyl)thiazol-2-yl)acetamide]"
4,> 9.00,"CC(=O)Nc1nc(F)c(CN2C[C@H](Oc3cn4cccnc4n3)C[C@@H]2C)s1 [Example 92, N-(4-fluoro-5-(((2S,4R)-4-(imidazo[1,2-a]pyrimidin-2-yloxy)-2-methylpyrrolidin-1-yl)methyl)thiazol-2-yl)acetamide]"
5,> 9.00,"CC(=O)Nc1nc(F)c(CN2C[C@H](Oc3cccc4nnnn34)C[C@@H]2C)s1 [Example 147, N-(4-fluoro-5-(((2S,4R)-2-methyl-4-(tetrazolo[1,5-a]pyridin-5-yloxy)pyrrolidin-1-yl)methyl)thiazol-2-yl)acetamide]"
6,8.01,"CC(=O)Nc1ncc(CN2C[C@H](Oc3cc4ccccc4nc3C#N)C[C@@H]2C)s1 [Example 31, N-(5-(((2S,4R)-4-((2-cyanoquinolin-3-yl)oxy)-2-methylpyrrolidin-1-yl)methyl)thiazol-2-yl)acetamide]"
7,8.35,"CC(=O)Nc1ncc(CN2C[C@H](Oc3nccc4ccccc34)C[C@@H]2C)s1 [Example 26, N-(5-(((2S,4R)-4-(isoquinolin-1-yloxy)-2-methylpyrrolidin-1-yl)methyl)thiazol-2-yl)acetamide]"
8,8.80,"CC(=O)Nc1ncc(CN2C[C@H](Oc3nn4c(C(F)(F)F)nnc4c(C)c3C)C[C@@H]2C)s1 [Example 20, N-(5-(((2S,4R)-4-((7,8-dimethyl-3-(trifluoromethyl)-[1,2,4]triazolo[4,3-b]pyridazin-6-yl)oxy)-2-methylpyrrolidin-1-yl)methyl)thiazol-2-yl)acetamide]"
9,> 9.00,"CC(=O)Nc1nc(F)c(CN2C[C@H](Oc3ccnc4cc(F)cnc34)C[C@@H]2C)s1 [Example 129, N-(4-fluoro-5-(((2S,4R)-4-((7-fluoro-1,5-naphthyridin-4-yl)oxy)-2-methylpyrrolidin-1-yl)methyl)thiazol-2-yl)acetamide]"
10,> 9.00,"CC(=O)Nc1nc(F)c(CN2C[C@H](Oc3ccc4ccn(C)c4n3)C[C@@H]2C)s1 [Example 163, N-(4-fluoro-5-(((2S,4R)-2-methyl-4-((1-methyl-1H-pyrrolo[2,3-b]pyridin-6-yl)oxy)pyrrolidin-1-yl)methyl)thiazol-2-yl)acetamide]"
11,> 9.00,"CC(=O)Nc1ncc(CN2C[C@H](Oc3cc(C)nc4ccccc34)C[C@@H]2C)s1 [Example 13, N-(5-(((2S,4R)-2-methyl-4-((2-methylquinolin-4-yl)oxy)pyrrolidin-1-yl)methyl)thiazol-2-yl)acetamide]"
12,> 9.00,"CC(=O)Nc1nc(F)c(CN2C[C@H](Oc3ccc4cn(C)nc4c3)C[C@@H]2C)s1 [Example 51, N-(4-fluoro-5-(((2S,4R)-2-methyl-4-((2-methyl-2H-indazol-6-yl)oxy)pyrrolidin-1-yl)methyl)thiazol-2-yl)acetamide]"
13,> 9.00,"CC(=O)Nc1ncc(CN2C[C@H](Oc3cc4c(Cl)ccnc4cc3F)C[C@@H]2C)s1 [Example 7, N-(5-(((2S,4R)-4-((4-chloro-7-fluoroquinolin-6-yl)oxy)-2-methylpyrrolidin-1-yl)methyl)thiazol-2-yl)acetamide]"
14,> 9.00,"CC(=O)Nc1nc(F)c(CN2C[C@H](Oc3ncnc4occc34)C[C@@H]2C)s1 [Example 74, N-(4-fluoro-5-(((2S,4R)-4-(furo[2,3-d]pyrimidin-4-yloxy)-2-methylpyrrolidin-1-yl)methyl)thiazol-2-yl)acetamide]"
15,> 9.00,"CC(=O)Nc1ncc(CN2C[C@H](Oc3ccn4ccnc4c3)C[C@@H]2C)s1 [Example 42, N-(5-(((2S,4R)-4-(imidazo[1,2-a]pyridin-7-yloxy)-2-methylpyrrolidin-1-yl)methyl)thiazol-2-yl)acetamide]"
16,> 9.00,"CC(=O)Nc1nc(F)c(CN2C[C@H](Oc3ccc4nccnc4n3)C[C@@H]2C)s1 [Example 117, N-(4-fluoro-5-(((2S,4R)-2-methyl-4-(pyrido[2,3-b]pyrazin-6-yloxy)pyrrolidin-1-yl)methyl)thiazol-2-yl)acetamide]"
17,> 9.00,"CC(=O)Nc1ncc(CN2C[C@H](Oc3ccc4ccccc4n3)C[C@@H]2C)s1 [Example 8, N-(5-(((2S,4R)-2-methyl-4-(quinolin-2-yloxy)pyrrolidin-1-yl)methyl)thiazol-2-yl)acetamide]"
18,7.80,"CC(=O)Nc1ncc(CN2C[C@H](Oc3ccnc4c3CCCC4)C[C@@H]2C)s1 [Example 33, N-(5-(((2S,4R)-2-methyl-4-((5,6,7,8-tetrahydroquinolin-4-yl)oxy)pyrrolidin-1-yl)methyl)thiazol-2-yl)acetamide]"
19,> 9.00,"CC(=O)Nc1ncc(CN2C[C@H](Oc3ccn4nccc4c3)C[C@@H]2C)s1 [Example 59, N-(5-(((2S,4R)-2-methyl-4-(pyrazolo[1,5-a]pyridin-5-yloxy)pyrrolidin-1-yl)methyl)thiazol-2-yl)acetamide]"
20,> 9.00,"CC(=O)Nc1nc(F)c(CN2C[C@H](Oc3ccnc4c3cnn4C)C[C@@H]2C)s1 [Example 139, N-(4-fluoro-5-(((2S,4R)-2-methyl-4-((1-methyl-1H-pyrazolo[3,4-b]pyridin-4-yl)oxy)pyrrolidin-1-yl)methyl)thiazol-2-yl)acetamide]"
21,> 9.00,"CC(=O)Nc1nc(F)c(CN2C[C@H](Oc3cnc4nccn4c3)C[C@@H]2C)s1 [Example 164, N-(4-fluoro-5-(((2S,4R)-4-(imidazo[1,2-a]pyrimidin-6-yloxy)-2-methylpyrrolidin-1-yl)methyl)thiazol-2-yl)acetamide]"
22,> 9.00,"CC(=O)Nc1nc(F)c(CN2C[C@H](Oc3ccc4ccccc4n3)C[C@@H]2C)s1 [Example 78, N-(4-fluoro-5-(((2S,4R)-2-methyl-4-(quinolin-2-yloxy)pyrrolidin-1-yl)methyl)thiazol-2-yl)acetamide]"
23,7.80,"CC(=O)Nc1ncc(CN2C[C@H](Oc3nc4ccccc4cc3C#N)C[C@@H]2C)s1 [Example 37, N-(5-(((2S,4R)-4-((3-cyanoquinolin-2-yl)oxy)-2-methylpyrrolidin-1-yl)methyl)thiazol-2-yl)acetamide]"
24,> 9.00,"CC(=O)Nc1ncc(CN2C[C@H](Oc3ccnc4ccsc34)C[C@@H]2C)s1 [Example 5, N-(5-(((2S,4R)-2-methyl-4-(thieno[3,2-b]pyridin-7-yloxy)pyrrolidin-1-yl)methyl)thiazol-2-yl)acetamide]"
25,8.10,"CC(=O)Nc1ncc(CN2C[C@H](Oc3nccc4ccc(C)cc34)C[C@@H]2C)s1 [Example 30, N-(5-(((2S,4R)-2-methyl-4-((7-methylisoquinolin-1-yl)oxy)pyrrolidin-1-yl)methyl)thiazol-2-yl)acetamide]"
26,6.11,CC(=O)Nc1ncc(CN2C[C@H](Oc3ncnc4sc(C(F)F)nc34)C[C@@H]2C)s1 [Example 36]
